Source: US10195185B2, “3-(1H-imidazo[4,5-C]pyridin-2-yl)-1H-pyrazolo[4,3-B]pyridines and therapeutic uses thereof” (Samumed, LLC, priority 2015, dated 2019)

Tests used:
Format in all cases: cell-based
[1] = test system: Primary human fibroblasts derived from IPF patients (LL29 cells) treated with TGF-β1; test: Inhibition of the fibrotic process: αSMA staining in TGF-β1 treated fibroblasts; details: Fibroblast, 96 h, LL29 fibroblasts treated with TGF-β1, 4 days; for inhibition at 10 µM: read-out: percent inhibition in brackets beside EC50 >10 μM
Text: Representative compounds were screened using primary human fibroblasts (derived from IPF patients) treated with TGF-β1 to determine their ability to inhibit the fibrotic process.
Primary human fibroblasts derived from IPF patients (LL29 cells) [^1Xiaoqiu Liu, et. al., “Fibrotic Lung Fibroblasts Show Blunted Inhibition by cAMP Due to Deficient cAMP Response Element-Binding Protein Phosphorylation”, Journal of Pharmacology and Experimental Therapeutics (2005), 315(2), 678-687; ^2Watts, K. L., et. al., “RhoA signaling modulates cyclin D1 expression in human lung fibroblasts; implications for idiopathic pulmonary fibrosis”, Respiratory Research (2006), 7(1), 88] were obtained from American Type Culture Collection (ATCC) and expanded in F12 medium supplemented with 15% Fetal Bovine Serum and Penicillin/Streptomycin.
Each compound was dissolved in DMSO as a 10 mM stock and used to prepare compound source plates. Serial dilution (1:2, 11-point dose-response curves from 10 μM to 1.87 nM) and compound transfer was performed using the ECHO 550 (Labcyte, Sunnyvale, Calif.) into 384-well clear bottom assay plates (Greiner Bio-One) with appropriate DMSO backfill for a final DMSO concentration of 0.1%. LL29 cells are plated at 1,500 cells/well in 80 μL/well F12 medium supplemented with 1% Fetal Bovine Serum. One hour after addition of the cells, TGF-β1 (Peprotech; 20 ng/mL) was added to the plates to induce fibrosis (ref. 1 and 2 above). Wells treated with TGF-β1 and containing DMSO were used as controls. Cells were incubated at 37° C. and 5% CO2 for 4 days. Following incubation for 4 days, SYTOX green nucleic acid stain (Life Technologies [Thermo Fisher Scientific]) was added to the wells at a final concentration of 1 μM and incubated at room temperature for 30 min. Cells were then fixed using 4% formaldehyde (Electron Microscopy Sciences), washed 3 times with PBS followed by blocking and permeabilization using 3% Bovine Serum Albumin (BSA; Sigma) and 0.3% Triton X-100 (Sigma) in PBS. Cells were then stained with antibody specific to α-smooth muscle actin (αSMA; Abcam) (ref. 1 and 2 above) in 3% Bovine Serum Albumin (BSA; Sigma) and 0.3% Triton X-100 (Sigma) in PBS, and incubated overnight at 4° C. Cells were then washed 3 times with PBS, followed by incubation with Alexa Flor-647 conjugated secondary antibody (Life Technologies [Thermo Fisher Scientific]) and DAPI at room temperature for 1 hour. Cells were then washed 3 times with PBS and plates were sealed for imaging. αSMA staining was imaged by excitation at 630 nm and emission at 665 nm and quantified using the Compartmental Analysis program on the CellInsight CX5 (Thermo Scientific). Dead or apoptotic cells were excluded from analysis based on positive SYTOX green staining. % of total cells positive for αSMA were counted in each well and normalized to the average of 11 wells treated with TGF-β1 on the same plate using Dotmatics' Studies Software. The normalized averages (fold change over untreated) of 3 replicate wells for each compound concentration were used to create dose-responses curves and EC50 values were calculated using non-linear regression curve fit in the Dotmatics' Studies Software. For EC50 of >10 μM, the percent inhibition at 10 μM is provided.

[2] = test system: Wnt activity (Wnt-responsive human Sp5 promoter, TCF/LEF binding sites) in SW480 colon carcinoma cells; test: Wnt activity screening assay: Sp5-Luc luciferase reporter gene in SW480 cells; details: for EC50: 10-point dose-response from 10 μM, incubated overnight; for inhibition at 10 µM: given for EC50 of >10 μM, read-out: percent inhibition at 10 μM
Text: The screening assay for Wnt activity is described as follows. Reporter cell lines can be generated by stably transducing cancer cell lines (e.g., colon cancer) or primary cells (e.g., IEC-6 intestinal cells) with a lentiviral construct that includes a Wnt-responsive promoter driving expression of the firefly luciferase gene.
SW480 colon carcinoma cells were transduced with a lentiviral vector expressing luciferase with a human Sp5 promoter consisting of a sequence of eight TCF/LEF binding sites. SW480 cells stably expressing the Sp5-Luc reporter gene and a hygromycin resistance gene were selected by treatment with 150 μg/mL of hygromycin for 7 days. These stably transduced SW480 cells were expanded in cell culture and used for all further screening activities. Each compound was dissolved in DMSO as a 10 mM stock and used to prepare compound source plates. Serial dilution (1:3, 10-point dose-response curves starting from 10 μM) and compound transfer was performed using the ECHO 550 (Labcyte, Sunnyvale, Calif.) into 384-well white solid bottom assay plates (Greiner Bio-One) with appropriate DMSO backfill for a final DMSO concentration of 0.1%. For Sp5-Luc reporter gene assays, the cells were plated at 4,000 cells/well in 384-well plates with medium containing 1% fetal bovine serum and incubated overnight at 37° C. and 5% CO2. Following incubation, 20 μl of BrightGlo luminescence reagent (Promega) was added to each well of the 384-well assay plates. The plates were placed on an orbital shaker for 2 min and then luminescence was quantified using the Envision (Perkin Elmer) plate reader. Readings were normalized to DMSO only treated cells, and normalized activities were utilized for EC50 calculations using the dose-response log (inhibitor) vs. response-variable slope (four parameters) nonlinear regression feature available in GraphPad Prism 5.0 (or Dotmatics). For EC50 of >10 μM, the percent inhibition at 10 μM is provided.

SW480 colon cancer cells = test: Cell viability assay (CellTiter-Blue), four days; details: Homo sapiens, 96 h; for inhibition at 10 µM: read-out: percent inhibition at 10 μM (given for EC50 of >10 μM); for EC50: CellTiter-Blue cell viability
Description: Representative compounds were screened using the following assay procedure to assess the effect on cell viability as described below.
Each compound was dissolved in DMSO as a 10 mM stock and used to prepare compound source plates. Serial dilution (1:3, 8-point dose-response curves from 10 μM to 0.0045 μM) and compound transfer was performed using the ECHO 550 (Labcyte, Sunnyvale, Calif.) into 96-well clear bottom, black-walled plates (Corning-Costar).
Approximately 2×10^3 SW480 colon cancer cells were seeded into each well and allowed to incubate in the presence or absence of compound for four days at 37° C./5% CO2. Eight replicates of DMSO-treated cells served as controls and cells treated with compound were performed in duplicate.
After incubation, 20 μL of CellTiter-Blue (Promega) was added to each well allowed to incubate for approximately 3 hours. This reagent was a buffered solution which contains resazurin, metabolically active cells were able to reduce rezarurin (blue) into resorufin (pink) which was highly fluorescent. This measured fluorescence was used as a readout for cell viability.
After incubation, the plates were read at Ex 560 nm Em 590 nm (Cytation 3, BioTek). Dose-response curves were generated and EC50 concentration values were calculated using non-linear regression curve fit in the GraphPad Prism (San Diego, Calif.) or Dotmatics' Studies Software (Bishops Stortford, UK). For EC50 of >10 μM, the percent inhibition at 10 μM is provided.

Molecule `COc1cccc(-c2nccc3[nH]c(-c4n[nH]c5ccc(-c6cncc(NC(=O)CC(C)(C)C)c6)nc45)nc23)c1` [Compound 1006, N-(5-(3-(4-(3-methoxyphenyl)-1H-imidazo[4,5-c]pyridin-2-yl)-1H-pyrazolo [4,3-b]pyridin-5-yl)pyridin-3-yl)-3,3-dimethylbutanamide] has an EC50 [1] of 2.5 µM, an EC50 [2] greater than 10 µM and an inhibition at 10 µM [2] of 16.6%. For the same molecule, the inhibition at 10 µM (SW480 colon cancer cells) was 0% and the EC50 (SW480 colon cancer cells) was greater than 10 µM.

Work on `Cc1ccc(-c2nccc3[nH]c(-c4n[nH]c5ccc(C6=CCNCC6)nc45)nc23)s1` [Compound 730, 3-(4-(5-Methylthiophen-2-yl)-1H-imidazo[4,5-c]pyridin-2-yl)-5-(1,2,3,6-tetrahydropyridin-4-yl)-1H-pyrazolo[4,3-b]pyridine] yielded an EC50 [1] of 6.17 µM, an EC50 [2] greater than 10 µM and an inhibition at 10 µM [2] of 43.4%. The EC50 (SW480 colon cancer cells) was 5.26 µM.

With `Cc1ccc(-c2nccc3[nH]c(-c4n[nH]c5ccc(-c6cncc(OC7CCCCC7)c6)nc45)nc23)s1` [Compound 735, 5-(5-(Cyclohexyloxy)pyridin-3-yl)-3-(4-(5-methylthiophen-2-yl)-1H-imidazo[4,5-c]pyridin-2-yl)-1H-pyrazolo[4,3-b]pyridine] the EC50 [1] was 0.958 µM, the EC50 [2] was 1.04 µM and the inhibition at 10 µM (SW480 colon cancer cells) was 0%. The EC50 (SW480 colon cancer cells) was greater than 10 µM.

With `O=C(Cc1ccccc1)Nc1cncc(-c2ccc3[nH]nc(-c4nc5c(-c6ccncc6)nccc5[nH]4)c3n2)c1` [Compound 122, 2-phenyl-N-(5-(3-(4-(pyridin-4-yl)-1H-imidazo[4,5-c]pyridin-2-yl)-1H-pyrazolo[4,3-b]pyridin-5-yl)pyridin-3-yl)acetamide] the EC50 [1] was greater than 10 µM, the inhibition at 10 µM [1] was 0% and the EC50 [2] was greater than 10 µM. The inhibition at 10 µM [2] was 1%, the inhibition at 10 µM (SW480 colon cancer cells) was 3.2% and the EC50 (SW480 colon cancer cells) was greater than 10 µM.

`CN(C)c1cncc(-c2ccc3[nH]nc(-c4nc5c(N6CCCCC6)nccc5[nH]4)c3n2)c1` [Compound 175, N,N-Dimethyl-5-(3-(4-(piperidin-1-yl)-1H-imidazo[4,5-c]pyridin-2-yl)-1H-pyrazolo [4,3-b]pyridin-5-yl)pyridin-3-amine] gave an EC50 [1] of 2.4 µM, an EC50 [2] of 3.89 µM and an EC50 (SW480 colon cancer cells) of 1.99 µM.

Work on `Nc1cncc(-c2ccc3[nH]nc(-c4nc5c(-c6ccccc6F)nccc5[nH]4)c3n2)c1` [Compound 59, 5-(3-(4-(2-Fluorophenyl)-1H-imidazo[4,5-c]pyridin-2-yl)-1H-pyrazolo[4,3-b]pyridin-5-yl)pyridin-3-amine] yielded an EC50 [1] greater than 10 µM, an inhibition at 10 µM [1] of 0% and an EC50 [2] greater than 10 µM. The inhibition at 10 µM [2] was 27.7%, the inhibition at 10 µM (SW480 colon cancer cells) was 0% and the EC50 (SW480 colon cancer cells) was greater than 10 µM.

`O=C(Cc1ccccc1)Nc1cncc(-c2ccc3[nH]nc(-c4nc5cnccc5[nH]4)c3n2)c1` [Compound 262, N-(5-(3-(1H-imidazo[4,5-c]pyridin-2-yl)-1H-pyrazolo[4,3-b]pyridin-5-yl)pyridin-3-yl)-2-phenylacetamide] gave an EC50 [1] greater than 10 µM, an inhibition at 10 µM [1] of 0% and an EC50 [2] greater than 10 µM. It also gave an inhibition at 10 µM [2] of 12.9%, an inhibition at 10 µM (SW480 colon cancer cells) of 2.2% and an EC50 (SW480 colon cancer cells) greater than 10 µM.

`Cn1cc(-c2ccc3[nH]nc(-c4nc5c(-c6cc(F)cc(CNS(C)(=O)=O)c6)nccc5[nH]4)c3n2)cn1` [Compound 764, N-(3-Fluoro-5-(2-(5-(1-methyl-1H-pyrazol-4-yl)-1H-pyrazolo [4,3-b]pyridin-3-yl)-1H-imidazo[4,5-c]pyridin-4-yl)benzyl)methanesulfonamide] gave an EC50 [1] of 1.06 µM, an EC50 [2] of 0.837 µM and an EC50 (SW480 colon cancer cells) of 5.88 µM.

Molecule `CC(C)C(=O)Nc1cncc(-c2ccc3[nH]nc(-c4nc5c(-c6ccccc6F)nccc5[nH]4)c3n2)c1` [Compound 65, N-(5-(3-(4-(2-fluorophenyl)-1H-imidazo[4,5-c]pyridin-2-yl)-1H-pyrazolo [4,3-b]pyridin-5-yl)pyridin-3-yl)isobutyramide] has an EC50 [1] greater than 10 µM, an inhibition at 10 µM [1] of 4% and an EC50 [2] greater than 10 µM. It also gave an inhibition at 10 µM [2] of 2.7%, an inhibition at 10 µM (SW480 colon cancer cells) of 8.7% and an EC50 (SW480 colon cancer cells) greater than 10 µM.

`CN1CCN(c2nccc3[nH]c(-c4n[nH]c5ccc(-c6cncc(NC(=O)C7CCCC7)c6)nc45)nc23)CC1` [Compound 246, N-(5-(3-(4-(4-Methylpiperazin-1-yl)-1H-imidazo[4,5-c]pyridin-2-yl)-1H-pyrazolo [4,3-b]pyridin-5-yl)pyridin-3-yl)cyclopentanecarboxamide] showed an EC50 [1] of 5.26 µM, an EC50 [2] greater than 10 µM and an inhibition at 10 µM [2] of 15%. The inhibition at 10 µM (SW480 colon cancer cells) was 0% and the EC50 (SW480 colon cancer cells) was greater than 10 µM.

`CCCC(=O)Nc1cncc(-c2ccc3[nH]nc(-c4nc5c(-c6ccsc6)nccc5[nH]4)c3n2)c1` [Compound 297, N-(5-(3-(4-(Thiophen-3-yl)-1H-imidazo[4,5-c]pyridin-2-yl)-1H-pyrazolo [4,3-b]pyridin-5-yl)pyridin-3-yl)butyramide] showed an EC50 [1] greater than 10 µM, an inhibition at 10 µM [1] of 16.1% and an EC50 [2] of 2.09 µM. For the same molecule, the EC50 (SW480 colon cancer cells) was 1.1 µM.

`CC(C)C(=O)Nc1cncc(-c2ccc3[nH]nc(-c4nc5c(-c6cccnc6)nccc5[nH]4)c3n2)c1` [Compound 93, N-(5-(3-(4-(Pyridin-3-yl)-1H-imidazo[4,5-c]pyridin-2-yl)-1H-pyrazolo[4,3-b]pyridin-5-yl)pyridin-3-yl)isobutyramide] was tested, and the EC50 [1] was 2.01 µM, the EC50 [2] was greater than 10 µM and the inhibition at 10 µM [2] was 25.1%. For the same molecule, the inhibition at 10 µM (SW480 colon cancer cells) was 5.9% and the EC50 (SW480 colon cancer cells) was greater than 10 µM.
